Source: patent US10125135B2, “Chemical compounds” (AstraZeneca AB, priority 2016, dated 2018)

What was measured:
Format in all cases: cell-based
[1] = biological target: estrogen receptor (ERα) in MCF-7 human breast cancer cell line (Homo sapiens (Human), UniProt P03372); experiment: Western blotting assay, MCF-7 cells; conditions: 100 nM compound, 48 h; normalised to vehicle (0%) and 100 nM fulvestrant (100%)
Experimental: (§1) The ability of compounds to down-regulate estrogen receptor (ER) was assessed by western blotting using human breast cancer cell lines (MCF-7 and CAMA-1). Cells were plated into 12-well tissue culture-treated plates at 0.5×10^6/well in phenol red-free RPMI containing 2 mM L-glutamine and 5% (v/v) charcoal treated foetal calf serum (F6765, Sigma). Cells were incubated with compounds (100 nM) or vehicle control (0.1% DMSO) for 48 h at 37° C., 5% CO2 before washing once with PBS and lysing with 80 μl lysis buffer (25 mM Tris/HCl, 3 mM EDTA, 3 mM EGTA, 50 mM NaF, 2 mM sodium orthovanadate, 0.27 M sucrose, 10 mM β-glycerophosphate, 5 mM sodium pyrophosphate, 0.5% TritonX-100, pH 6.8) on ice.
(§2) Cells were scraped, sonicated and centrifuged prior to performing a protein assay (DC Bio-Rad Protein kit, 500-0116) and making samples to a protein concentration of 1-2 mg/m1 in lysis buffer containing 1× LDS Sample Buffer (NP0007, Invitrogen) and 1× NuPAGE sample reducing agent (NP0009, Invitrogen). Samples were boiled for 10 min at 95° C. and then frozen at −20° C. until ready for use.
(§3) 10-20 μg protein was loaded onto 26-well Criterion gels (BioRad 345-0034). Gels were run at 125 V for 1 hr 25 min in running buffer (24 mM Tris Base Sigma, 192 mM Glycine, 3.5 mM SDS, made up in distilled water). Gels were then transferred at 30V for 2 hr in transfer buffer (25 mM Tris, 192 mM Glycine, 20% (v/v) methanol, pH 8.3, made up in distilled water) onto nitrocellulose membrane. The blot was stained with Ponceau S (P7170, Sigma) and cut according to appropriate molecular weight markers.
(§4) Membranes were blocked for 1 hour at room temp in 5% Marvel (w/v) in phosphate-buffered saline containing 0.05% Tween™ 20 (PBS/Tween). Blots were then incubated with anti-ERα (SP1) rabbit monoclonal antibody (Thermofisher) diluted 1:1000 at 4° C. overnight (with gentle shaking) followed by several washes with PBS/Tween. Secondary anti-rabbit HRP antibody (7074, CST) diluted 1:2000 dilution was incubated for 2 h at room temperature (with gentle shaking) followed by several washes with PBS/Tween. All antibodies were made up in 5% Marvel (w/v) in PBS/Tween.
(§5) The immunoblots were developed using Pierce WestDura chemiluminescent reagents (Thermo Scientific 34076) and developed/quantified on the G-box using Syngene software. Down-regulation of the ERα receptor was normalised to the vehicle control (0% down-regulation) and the 100 nM fulvestrant control (100% down-regulation) run within the same gel.

[2] = biological target: estrogen receptor (ERα) in CAMA-1 human breast cancer cell line (Homo sapiens (Human), UniProt P03372); experiment: Western blotting assay, CAMA-1 cells; conditions: 100 nM compound, 48 h; normalised to vehicle (0%) and 100 nM fulvestrant (100%)
Experimental: as §1, §2, §3, §4, §5

[3] = biological target: ERα receptor in MCF-7 human ductal carcinoma breast cell line (Homo sapiens (Human), UniProt P03372); experiment: MCF-7 ER down regulation assay (immuno-fluorescence); conditions: MCF-7 cells, 18-22 hours incubation; read-out: ER down regulation IC50 value
Chain of ERα receptor in MCF-7 human ductal carcinoma breast cell line (P03372 whole entry): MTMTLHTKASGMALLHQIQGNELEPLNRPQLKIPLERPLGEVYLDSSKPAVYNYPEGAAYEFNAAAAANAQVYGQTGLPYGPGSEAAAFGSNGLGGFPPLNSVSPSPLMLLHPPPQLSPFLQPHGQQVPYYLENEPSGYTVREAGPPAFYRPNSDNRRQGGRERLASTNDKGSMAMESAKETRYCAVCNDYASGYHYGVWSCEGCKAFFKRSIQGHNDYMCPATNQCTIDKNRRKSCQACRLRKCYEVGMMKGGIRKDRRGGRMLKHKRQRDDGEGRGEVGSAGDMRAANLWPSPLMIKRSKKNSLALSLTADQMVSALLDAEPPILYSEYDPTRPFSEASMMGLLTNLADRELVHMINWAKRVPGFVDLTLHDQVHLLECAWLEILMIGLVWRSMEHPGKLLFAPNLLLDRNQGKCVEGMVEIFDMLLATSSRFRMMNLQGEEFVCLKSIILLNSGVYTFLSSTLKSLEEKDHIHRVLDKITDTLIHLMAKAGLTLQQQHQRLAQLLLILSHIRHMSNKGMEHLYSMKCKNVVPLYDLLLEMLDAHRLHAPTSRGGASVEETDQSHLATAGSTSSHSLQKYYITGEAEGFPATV

Chain of estrogen receptor (ERα) in MCF-7 human breast cancer cell line (P03372 whole entry): as above
Chain of estrogen receptor (ERα) in CAMA-1 human breast cancer cell line (P03372 whole entry): as above

| SMILES | MCF7 Western % ER deg vs Fv [1] [%] | CAMA1 Western % ER deg vs Fv [2] [%] | DC50 [3] [nM] |
| --- | --- | --- | --- |
| COc1cc(OCCN2CC(CF)C2)ccc1[C@@H]1c2ccc3[nH]ncc3c2C[C@@H](C)N1CC(C)C [Example 9, (6S,8R)-6-(4-(2-(3-(fluoromethyl)azetidin-1-yl)ethoxy)-2-methoxyphenyl)-7-isobutyl-8-methyl-6,7,8,9-tetrahydro-3H-pyrazolo[4,3-f]isoquinoline] | 97 | 81 | 0.5 |
| COc1cc(OCCN2CC(CF)C2)ccc1[C@@H]1c2ccc3[nH]ncc3c2C[C@@H](C)N1CC(C)(C)F [Example 5, (6S,8R)-7-(2-fluoro-2-methylpropyl)-6-(4-(2-(3-(fluoromethyl)azetidin-1-yl)ethoxy)-2-methoxyphenyl)-8-methyl-6,7,8,9-tetrahydro-3H-pyrazolo[4,3-f]isoquinoline] | 69 | 74 | 0.16 |
| C[C@@H]1Cc2c(ccc3[nH]ncc23)[C@@H](c2ccc(OCCN3CC(CF)C3)cn2)N1CC(F)F [Example 51, (6S,8R)-7-(2,2-difluoroethyl)-6-(5-(2-(3-(fluoromethyl)azetidin-1-yl)ethoxy)pyridin-2-yl)-8-methyl-6,7,8,9-tetrahydro-3H-pyrazolo[4,3-f]isoquinoline] | 97 | 82 | 0.54 |
| C[C@@H]1Cc2c(ccc3[nH]ncc23)[C@@H](c2ccc(OCCN3CC(CF)C3)cn2)N1CC1(F)CC1 [Example 8, (6S,8R)-7-((1-fluorocyclopropyl)methyl)-6-(5-(2-(3-(fluoromethyl)azetidin-1-yl)ethoxy)pyridin-2-yl)-8-methyl-6,7,8,9-tetrahydro-3H-pyrazolo[4,3-f]isoquinoline] | 80 | 86 | 0.39 |
| C[C@@H]1Cc2c(ccc3[nH]ncc23)[C@@H](c2ccc(OCCN3CC(CF)C3)cn2)N1CC(F)(F)F [Example 49, (6S,8R)-6-(5-(2-(3-(fluoromethyl)azetidin-1-yl)ethoxy)pyridin-2-yl)-8-methyl-7-(2,2,2-trifluoroethyl)-6,7,8,9-tetrahydro-3H-pyrazolo[4,3-f]isoquinoline] | 98 | 77 | 0.21 |
| COc1cc(OCCN2CC(CF)C2)ccc1[C@@H]1c2ccc3[nH]ncc3c2C[C@@H](C)N1CC1(F)CC1 [Example 6, (6S,8R)-7-((1-fluorocyclopropyl)methyl)-6-(4-(2-(3-(fluoromethyl)azetidin-1-yl)ethoxy)-2-methoxyphenyl)-8-methyl-6,7,8,9-tetrahydro-3H-pyrazolo[4,3-f]isoquinoline] | 77 | 87 | 0.13 |
